Broadly, the GI50 is the concentration giving 50% growth inhibition. The term TGI denotes the concentration at which net growth stops.

The values below come from PubChem BioAssay (NCI).

Structures are written as SMILES. Where “and” joins values, the source holds several entries; their conditions need not be identical. Equal entries are not always repeated.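 How tested: cells in 96-well plates exposed to compound for 48 hours at five concentrations. GI50 = concentration required for 50% inhibition of growth. At the TGI there is no net growth.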

The assay has as its system MDA-MB-468 breast. The assay can be described thus: DTP human tumour cell line panel, 48 h.
In the case of `CC1=CC(=Nc2ccc(N(CCCl)CCCl)cc2)C=C(C)C1=O`, the GI50 was 0.191 µM and the TGI worked out at 0.822 µM.
Turning to `COC(=O)[C@]12CC[C@@H](C)[C@H](C)[C@@H]1C1=CC[C@@H]3[C@@]4(C)C/C(=N\O)[C@H](O)[C@@]5(C)COC(=C45)C[C@@]3(C)[C@]1(C)CC2`, the GI50 was 6.22 µM and the TGI amounted to 20.6 µM.
On the same counts, the results for `C=CC(=O)N1CC2(CCN(c3nc(OC4CCN(CCCOC)CC4)nc4c(OCC(F)(F)F)c(-c5c(C)ccc6[nH]ncc56)c(C5CC5)cc34)CC2)C1` are 1.59 µM and 3.29 µM.
In the same order, the values of `N#Cc1c(-c2ccc(F)cc2)nc(N/N=C/c2c[nH]c3ccccc23)nc1N1CCOCC1` are 3.46 µM and 22.7 µM.
In the same order, the values of `CN1CCN(C(=O)OCc2nc3c(N4CCOCC4)nc(Cl)nc3n2C)CC1` are 0.923 µM and 2.33 µM.
For `CC/C(=C(/c1ccc(O)cc1)c1ccc(OCCNC)cc1)c1ccccc1`, the GI50 is 1.42 µM and the TGI was 2.96 µM.
Regarding `CC(=O)OC[C@]1(C)C=C2C(=O)[C@](C)(O)C3(CC3)C(C)=C2[C@H]1O`, the GI50 is 0.0447 µM and the total growth inhibition concentration (TGI) turned out to be 0.196 µM.
Take `Oc1ccc(CN2CCC(N3CCCCC3)CC2)c2cccnc12`: the GI50 is 25.2 µM and the TGI turned out to be 73.9 µM.
In the same order, the values of `C[C@@H]1OC(O)[C@@H](F)[C@H](O)[C@@H]1O` (stereo not given in full) are greater than 100 µM and greater than 100 µM.
On the same counts, the results for `CCOc1cc2c(Cl)ncnc2c(OCC)c1OCC` are 0.781 µM and 3.56 µM.
On the same counts, the results for `C=CCCCCCCCCC(=O)[O][Sn]([CH2]CCC)([CH2]CCC)[CH2]CCC` are 0.135 µM and 0.278 µM.
On to `CS(=O)(=O)Nc1cc(-c2ccc3ncc(C#N)c(NCc4cccc(F)c4)c3c2)cnc1Cl`, for which the GI50 was 0.102 µM and the TGI stood at 0.926 µM.
Consider `Oc1c(CN2CCC(N3CCCCC3)CC2)cc(Cc2cc(CN3CCC(N4CCCCC4)CC3)c(O)c3ncccc23)c2cccnc12`, for which the GI50 is 1.15 µM and the TGI was 2.88 µM.
On the same counts, the results for `O=C1CCCCN1CCCCC#Cc1ccccc1C#Cc1ccc([N+](=O)[O-])cc1` are 4.58 µM and 26.1 µM.
In the same order, the values of `N#Cc1ccc(O)c(C2=NCC(c3cccc(Oc4ccccc4)c3)O2)c1` (stereo not given) are 0.841 µM and 7.07 µM.
Take `CCCn1cnc2c(SCc3ccccc3Cl)nc(N)nc21`: the GI50 was 13.4 µM and the TGI came to 48.4 µM.
On to `O=C1c2cc(Cl)ccc2S(=O)(=O)c2c(NCCCNCCO)nc3ccccc3c21`, for which the GI50 is 1.06 µM and the TGI was determined as 2.95 µM.
Regarding `O=C1Nc2c(C(F)(F)F)cccc2[C@]1(c1ccc(O)cc1)c1ccc(OC(F)(F)F)cc1`, the GI50 was 6.48 µM and the TGI was found to be 21.4 µM.
In the same order, the values of `FC(F)(F)c1cccc(Nc2nccc(-c3cnn4nc(-c5ccccc5)ccc34)n2)c1` are 7.42 µM and greater than 23.5 µM.
In the same order, the values of `O=C(/C(Br)=C/c1ccccc1)c1ccccc1` are 1.12 µM and 2.56 µM.
In the case of `COc1cc2c(c(O)c1Br)C(=O)c1c(O)cc(C[C@H](C)O)cc1[C@H]2[C@H]1c2cc(C[C@H](C)O)cc(O)c2C(=O)c2c1cc(OC)c(Br)c2O`, the GI50 is 13.3 µM and 16.5 µM; the TGI was 36 µM and 41.9 µM.
As for `COc1cc(C2NC(=O)c3ccccc3N2)ccc1OCCCCCOc1c(OC)cc(C2=NOC(c3cc(OC)c(OC)c(OC)c3)C2)cc1OC` (stereo not given), the GI50 was 0.0805 µM and the TGI stood at 97.3 µM.
In the same order, the values of `O=C(N/N=C/c1ccccc1O)c1ccccc1Nc1ccnc(C(F)(F)F)c1` are 0.272 µM and 9.14 µM.
On the same counts, the results for `C=C1C(=O)O[C@H]2[C@H]1CC/C(COC(=O)c1ccc3ccccc3c1)=C\CC[C@@]1(C)O[C@@H]21` are 0.784 µM and 2.61 µM.
For `CCN(CC)c1ccc(/C=C/c2ccc3cc(C)ccc3[n+]2CC)cc1`, the GI50 was 0.0205 µM and the TGI was 0.464 µM.
As to `CCN(CC)CCOc1ccc(/C(=C(\Cl)c2ccccc2)c2ccccc2)cc1`, the GI50 was 1.36 µM and 1.57 µM; the TGI is 5.97 µM and 3.05 µM.
`OCc1c[nH]c2ccccc12`: the GI50 was 25.1 µM and the TGI is 75 µM.
On the same counts, the results for `NC(=O)c1ccc(I)c(N)c1` are greater than 100 µM and greater than 100 µM.
On the same counts, the results for `CC[C@]1(O)C[C@@H]2CN(CCc3c([nH]c4ccccc34)[C@@](C(=O)OC)(c3cc4c(cc3OC)N(C)[C@H]3[C@@](O)(C(=O)OC)[C@H](OC(C)=O)[C@]5(CC)C=CCN6CC[C@]43[C@@H]65)C2)C1` are less than 0.01 µM and less than 0.01 µM.
In the same order, the values of `COc1ccc(-c2cnnc3c(-c4cccc(C(F)(F)F)c4)cnn23)cc1` are 5.39 µM and greater than 100 µM.
`CC(C)(C)OC(=O)N1CCc2c(sc3ncnc(N/N=C/c4cccc5ccccc45)c23)C1`: the GI50 is 4.21 µM and the TGI was determined as 28.1 µM.
On the same counts, the results for `N#CSc1c[nH]c2cccc(/C=C/C(=O)/C=C(/C=C/c3cccc4[nH]cc(SC#N)c34)OB(F)F)c12` are 0.3 µM and 1.19 µM.
For the molecule `CC[C@@H]1C(=O)N(C)c2cnc(Nc3ccc(C(=O)NC4CCN(C)CC4)cc3OC)nc2N1C1CCCC1`, the GI50 is 0.00135 µM and < 0.01 µM; the TGI was 0.0164 µM and < 0.0183 µM.
With `CC1(C)OC2[C@@H](CNC(=O)NC(=O)NC(=O)CI)O[C@@H](n3cnc4c(NC(=O)Nc5ccccc5)ncnc43)[C@H]2O1` (stereo not given in full), the GI50 is 6.78 µM and the TGI was found to be 14.8 µM.
On the same counts, the results for `Oc1ccc(NCc2nc3ccccc3[nH]2)cc1` are 88.4 µM and greater than 100 µM.
In the case of `O=c1[nH]ncc(Br)c1Br`, the GI50 was 1.27 µM and the TGI was 3.21 µM.
`Cc1ccc(NC(=O)c2cccc(N(C)C)c2)cc1NC(=O)c1ccc(O)cc1`: the GI50 is greater than 57.2 µM and the TGI was greater than 100 µM.
In the same order, the values of `C=C1C(=O)O[C@H]2[C@H]1CC/C(Cn1cc(-c3ccc(OC)cc3)nn1)=C\CC[C@@]1(C)O[C@@H]21` are 0.892 µM and 2.56 µM.
On to `Oc1ccc2ccccc2c1N=Nc1nccs1`, for which the GI50 is 1.64 µM and the TGI was found to be 6.16 µM.
With `COc1cc(C2=NOC(c3cc(OC)c(OC)c(OC)c3)C2)ccc1OCCCCOc1cc2c(cc1OC)C(=O)N1CCC[C@H]1C=N2` (stereo not given in full), the GI50 is 0.225 µM and the TGI was 0.593 µM.
